Experiments:
[1] = system: R8; assay: Indicator displacement assay with host:LCG reporter pair, guest R8; format: binding; conditions: association constant, competitive dye displacement with LCG, 5 mM phosphate buffer pH 7.3; only the lower limit can be estimated
Description: The binding affinity of the anionic calixarene activators toward cationic peptides was investigated using a small library of highly hydrophilic oligoarginines, from 3 to 8 residues. These peptides are not able to spontaneously transverse zwitterionic artificial membranes in vesicle assays, which allows the accurate evaluation of the calixarenes 1 and 2 as counterion activators without interferences from the transport of the peptide alone.[43]−[45] First, the formation of host–guest complexes between 1/2 and the selected peptides was verified by indicator displacement assays using lucigenin (LCG) as the fluorescent indicator.[46] As previously reported for other sulfonatocalixarene derivatives,[46] the formation of host–guest binding pairs between calixarenes 1/2 in the E- and Z-forms and LCG results in significant static fluorescence quenching (see Figure 2A and Figures S26 and S27). Quantitative analysis of the fluorescence titration data using a 1:1 host:guest binding model allows the determination of the respective binding constants (K) reported in Table 1. As can be observed, both 1/2 display high affinity for the LCG dye, on the 10^7 M^–1 range, which seems to be independent of the nature and conformation of the azobenzene arm. […] The host:LCG binding pairs were then employed in the above-mentioned indicator displacement assays to investigate the binding affinity of oligoarginines toward 1 and 2 (see Figure 2B and Figures S29–S33).
The binding affinities of the counterion activators and peptide complexes were analyzed by indicator displacement assays. […] Firstly, the affinity for LCG was calculated for each of the activators, by titrations followed by fluorescence spectroscopy leading to almost full quenching of the emission. […]
Figure S26 - Fluorescence titration of the lucigenin dye with increasing concentrations of A) E-1 and B) Z–1 in water (5 mM phosphate buffer pH 7.3). […]

[2] = system: HeLa cells; assay: MTT viability assay; format: cell-based; conditions: 24 h of incubation, 4-parameters logistic fit, triplicate, read-out: IC50 cytotoxicity
Method: Success in artificial vesicle assays encouraged us to conduct transport experiments of fluorescently labeled peptides in living cells (Figure 5). We first employed confocal fluorescence microscopy to evaluate counterion activator 2 for the intracellular transport of a carboxytetramethylrhodamine-labeled R8 peptide (TAMRA-R8) into the cytosol of HeLa cells. Cationic peptides usually remain trapped inside the endosomes when incubated with cells at low μM concentrations.[32],[44] […] The cytometry experiments validated the E isomer selective transport and indicated a four-fold intracellular delivery enhancement (Figure 5C and Figure S52). […]
measured on a Guava easyCyte BG HT collecting the emission at 583/26 nm (Yellow-G channel), using InCyte v3.2 (GuavaSoft, Millipore). Cells with typical FSC and SSC parameters were selected and the mean fluorescence intensity was calculated for each sample. Each condition was measured in quadruplicate. […]
Afterwards, samples were removed and replaced with 100 µL of fresh complete DMEM supplemented with 0.5 mg/mL MTT. […] The absorbance at 570 nm was measured with a plate reader (Tecan Infinite F200Pro) and the data normalized to the value of untreated cells (100% viability), after blank subtraction (cells previously treated with Triton X-100). Each condition was measured in triplicate. […]

Structure (SMILES)	Apparent affinity constant K for R8 [1]	IC50 [2]
O=S(=O)([O-])c1cc2c(O)c(c1)Cc1cc(S(=O)(=O)[O-])cc(c1O)Cc1cc(S(=O)(=O)[O-])cc(c1OCCCCCCOc1ccc(/N=N/c3ccccc3)cc1)Cc1cc(S(=O)(=O)[O-])cc(c1O)C2.[Li+].[Li+].[Li+].[Li+] [E-1]	>5 × 10^8 ^a M^–1	
CCCCc1ccc(/N=N/c2ccc(OCCCOc3c4cc(S(=O)(=O)[O-])cc3Cc3cc(S(=O)(=O)[O-])cc(c3O)Cc3cc(S(=O)(=O)[O-])cc(c3O)Cc3cc(S(=O)(=O)[O-])cc(c3O)C4)cc2)cc1.[Li+].[Li+].[Li+].[Li+] [E-2]	>5 × 10^8 ^a M^–1	16.9 µM
CCCCc1ccc(/N=N\c2ccc(OCCCOc3c4cc(S(=O)(=O)[O-])cc3Cc3cc(S(=O)(=O)[O-])cc(c3O)Cc3cc(S(=O)(=O)[O-])cc(c3O)Cc3cc(S(=O)(=O)[O-])cc(c3O)C4)cc2)cc1.[Li+].[Li+].[Li+].[Li+] [Z-2]		19.2 µM

Source: PMC10288505, “Photoswitchable Calixarene Activators for Controlled Peptide Transport across Lipid Membranes” (Journal of the American Chemical Society, 2023)
